How the values were obtained:
[1] = Comparison of crystal forms of the salt (behaviour during preparation); settings: during the preparation process
[2] = Hygroscopicity test method (DVS); format: physicochemical; settings: 80% RH, 25°C, DVS
Protocol: Hygroscopicity test method (DVS): The hygroscopicity of the sample was measured using SMS Intrinsic Plus. The sample was weighed into a sample pan, equilibrated at 25°C until dm/dt was less than 0.002%, and then measured in time mode. The humidity was adjusted from 60%-90%-0%-90%-0% RH, with increments of 10% RH per step, and each humidity level was maintained for 1 hour.

[3] = Purity test after storage in an oven at set temperature (stability); format: physicochemical
Protocol: Purity test: The sample to be tested was dissolved in a methanol solution, and the sample purity was measured by HPLC.

[4] = Compressibility test (tableting, XRPD detection); format: physicochemical; settings: compressed into tablets
[5] = Grindability test (mortar, XRPD detection); format: physicochemical
Protocol: Grindability test: An appropriate amount of the crystal compound to be tested was placed in a mortar and ground for 2 min and 5 min, followed by XRPD detection.

Solubility test = format: physicochemical; settings: thermodynamic from solid, water, 37°C, HPLC
Protocol: Approximately 10 mg of the crystal compound was weighed and added to 3 mL of water, shaken, and maintained at 37°C.

[6] = Pharmacokinetic evaluation in rats; format: in vivo; settings: plasma; Rat PK, oral (PO), 10 mg/kg
Protocol: Rats were used as test animals, and the plasma drug concentrations at different time points after gavage administration of the test sample were measured. The pharmacokinetic behavior of the compound of the present disclosure in rats was studied to evaluate its metabolic characteristics. For each experimental group, 3 rats with similar body weights were selected and orally administered a single dose of 10 mg/kg. […] Pharmacokinetic parameter calculations were performed using metabolic kinetic data analysis software WinNonlin 7.0 by non-compartmental analysis (NCA) based on plasma concentration data.
A test sample with a final preparation concentration (based on the content of the compound of formula I) of 1.0 mg/mL was prepared for oral administration, using a 0.5% CMC Na aqueous solution as the preparation solvent.
Administration: After overnight fasting (12 hours), rats were administered by gavage at a dose of 10 mg/kg.
The blood samples were placed in heparinized sample tubes, and centrifuged at 4°C and 3500 rpm for 10 minutes to separate plasma, which was then stored at -20°C. Food was provided 2 hours after administration.
Determination of the content of the compound to be tested in rat plasma after gavage administration: After thawing plasma samples at room temperature, 300 µL of internal standard (terfenadine 200 ng/mL, acetonitrile) was added to each sample. The mixtures were vortexed for 1 min and then centrifuged at 4°C and 15400 rpm for 10 min. The supernatant was diluted 20-fold with 80% acetonitrile-water and then injected for LC/MS/MS analysis.

[7] = Purity test after storage in an oven at set temperature (stability); format: physicochemical; settings: 80 °C for 30 days (footnote c)

Structure (SMILES)	Crystal form stability during preparation [1]	Hygroscopicity (80% RH) [2] [%]	Hygroscopicity (80% RH), description in words [2] [% RH linear reversible]	Purity, 2 to 8°C (6 months) ([3]; 2 to 8°C, 6 months, HPLC) [%]	Purity, Onset ([3]; Onset (before storage), HPLC) [%]	Thermal stability ([3]; conclusion from Table 13, degrades under heating or room temperature)	Purity, 60°C (7 day) ([3]; oven, 60°C, 7 day, HPLC) [%]	Purity, 80°C (result after 30 days) ([3]; oven, 80 °C for 30 days (footnote c), HPLC) [%]	Compressibility (20 Mp) [4]	Grindability (mortar 5 min), purity change [5] [%]	Grindability (mortar 5 min), solid form ([5]; XRPD)	solubility at 24 h (Solubility test) [µg/mL]	AUC(0-inf) [6] [ng·h/mL]	AUC(0-t) [6] [ng·h/mL]	Cmax [6] [ng/mL]	Tmax [6] [min]	half-life [6] [min]	Solid form after 80°C (result after 30 days) [7]
C1COCCO1.NC(CO)(CO)CO.O=C(O)c1ccc2nc(CN3CCC(c4ccccc4OCc4ccc(Cl)cc4F)CC3)n(CC3CCO3)c2c1 [Crystal form B of the 1,4-dioxane solvate of the 2-amino-2-(hydroxymethyl)-1,3-propanediol salt of (S)-2-((4-(2-((4-chloro-2-fluorobenzyl)oxy)phenyl)piperidin-1-yl)methyl)-1-(oxetan-2-aminomethyl)-1H-benzo[d]imidazole-6-carboxylate]	unstable, prone to crystal form transformation during preparation	–	–	–	–	–	–	–	–	–	–	–	–	–	–	–	–	–
O=C(O)c1ccc2nc(CN3CCC(c4ccccc4OCc4ccc(Cl)cc4F)CC3)n(C[C@@H]3CCO3)c2c1 [Compound of formula I]	–	0.25	10 to 90	82.49	99.15	poor thermal stability	99.15	70.18	Significant reduction in crystallinity, amorphization	6.5	Amorphous	< 1	401	396	154	40	65.4	amorphous
